Results reported in patent publication US20080234381A1, “Novel Trifluoromethoxy-Substituted Aryl Anilides” (Novo Nordisk A/S, priority 2005, published 2008).

melting point [°C]	Structure (SMILES)
169	N#Cc1ccc(NC(=O)c2c(O)ccc3ccccc23)c(OC(F)(F)F)c1 [Example 2, 2-Hydroxy-naphthalene-1-carboxylic acid(4-cyano-2-trifluoromethoxy-phenyl)-amide]
178	N#Cc1ccc(NC(=O)c2ccc3ccccc3c2O)c(OC(F)(F)F)c1 [Example 1, 1-Hydroxy-naphthalene-2-carboxylic acid(4-cyano-2-trifluoromethoxy-phenyl)-amide]
248	N#Cc1ccc(NC(=O)c2cc3ccccc3cc2O)c(OC(F)(F)F)c1 [Example 3, 3-Hydroxy-naphthalene-2-carboxylic acid(4-cyano-2-trifluoromethoxy-phenyl)-amide]
